Several values for one entry are separate records, joined by “and”; a condition that tells them apart may be missing. Equal entries are not always repeated. Entries after “also recorded” stand apart in the source; their conditions may differ.

The values below come from patent US10017741B2, “Compositions and methods for obtaining enriched mesenchymal stem cell cultures” (StemCell Technologies Inc., priority 2013, dated 2018).

Experiment [1] relates to BM-derived cultures (CD45+/CD11b+ macrophages, Sca1+ monocytes). Put plainly: Flow cytometry of BM-derived expansion cultures. The format is cell-based, mouse. The procedure:
(§1) c. Expansion of Human BM and Mouse BM and CB-Derived Cells Assay • 1. […] Cultures were allowed to grow for 10-14 days until adherent cells achieved 70 to 80% confluence. Mouse cultures were maintained under normal (5% CO2) or hypoxic conditions (5% CO2/5% O2) at 37 C in a cell culture incubator. Human cultures were maintained under 5% CO2 at 37 C in a humidified cell culture incubator. • 3. Adherent cells were passaged by releasing cultures from flask. Cultures were washed with 5 mL PBS and then 5 mL of 0.25% trypsin solution ([…] catalogue #07901) was added and the flasks incubated for 10 min at 37 C. To each flask, 5 mL complete medium was added to stop trypsin activity. • 4. Released cells were collected into a tube and centrifuged at 300×g for 5 minutes. • 5. Cells were resuspended in 2 mL of medium and counted using a hemocytometer. • 6. […] P1 cultures were incubated until they reached 70 to 80% confluence. • 8. Passaged cultures can be used at any time from P0 to P10 as needed for different applications.
d. Flow Cytometry Analysis • 1. Cultures of BM and CB-derived cells were trypsinized for 10 minutes and an equal volume of complete medium was added to cultures to stop trypsin activity • 2. Cell suspension was filtered through a 40 μm strainer, and cells counted using a hemocytometer • 3. Suspension was spun down at 300×g for 5 minutes. • 4. Supernatant was removed and cell pellet resuspended in FACS buffer (PBS with 2% FBS and 1 mM EDTA) • 5. A total of 1×10^5 cells in 300 μL FACS buffer was used for each flow cytometry analysis tube, including unstained, viability, compensation, and isotype controls. • 6. Cell suspensions were stained with fluorophore-labeled antibodies against CD45, CD11b, and Sca1, CD29, and viability dye. • 7. Cell suspensions were analyzed on a flow cytometer using compensation and isotype control to determine laser voltage and gating. • 8. Samples were gated on viable CD45^+ cells and 10,000 events per sample were collected. Alternatively, cells were gated on viable CD45^− cells and out of this gate the proportion of CD29+/Sca1^+ cells obtained.

Experiment [2] relates to BM-derived cultures (macrophage contamination, MSC morphology). The experiment is described as follows: Images of BM-derived expansion cultures. The format is cell-based, mouse. As to conditions: for macrophage contamination and MSC enrichment (images): BM. The procedure: as §1

On to `COc1ccc(COc2ccc(Cc3cnc(N)nc3N)cc2OC)cc1` [GW2580, 5-(3-Methoxy-4-((4-methoxybenzyl)oxy)benzyl)pyrimidine-2,4-diamine], for which the “number of CD45+/CD11b+/Sca1+ cells” value in experiment [1] (BM, 1 μM) was found to be 55%; in experiment [1] (BM, 5 μM) it was 40%; in experiment [1] (BM, 10 μM), 34%. Further, the “number of CD45+ cells” value in experiment [1] (BM, 1 μM (control 52%)) was 45%; in experiment [1] (BM, 5 μM (control 52%)), 33%; in experiment [1] (BM, 10 μM (control 52%)) it was 28%. Moreover, the “CD11b+/Sca1+ hematopoietic monocytes, of CD45+ cells” value in experiment [1] (BM, 1 μM P0 to P2) is on record as 44%; in experiment [1] (BM, 1 μM P0 to P3) it was 52%. For the same compound, the “CD11b+/Sca1− mature macrophages, of CD45+ cells” value in experiment [1] (BM, 1 μM P0 to P2) is 56%; in experiment [1] (BM, 1 μM P0 to P3), 41%. Besides, the “overall reduction in CD45+ cells” value in experiment [1] (BM, 1 μM P0 to P2) is reported as 18%; in experiment [1] (BM, 1 μM P0 to P3), 64%. In experiment [1] (BM, 1 μM P0 to P2), the “reduction in CD45+/CD11b+/Sca1+ monocyte differentiation into mature macrophage (increase in Sca1+ fraction vs control)” value was 36%. Also, in experiment [1] (BM, 1 μM P0 to P3), the “reduction in CD45+/CD11b+/Sca1+ monocyte differentiation into macrophages (monocytes prevented from differentiating)” value is > 50% and 52%. Also, the “reduction in CD45+/CD11b+/Sca1− mature macrophage differentiation” value in experiment [1] (BM, 1 μM, at P3) was over 50%. Further, the “CD45+/CD11b+ mature macrophages, of total viable cells” value in experiment [1] (BM, P1, 1 μM) was 60% and 62%. The “reduction in macrophages vs control” value in experiment [1] (BM, P1, 1 μM) worked out at 20%. The “CD45+/CD11b+ mature macrophages, of viable cells” value in experiment [1] (BM-derived cultures, 1 μM up to P2) was under 1%. In addition, the “macrophage contamination and MSC enrichment (images)” value in experiment [2] (1 μM continuous P0-P3) was “have reduced numbers of macrophages; also recorded: contain a much reduced number of these contaminating macrophages”; in experiment [2] (1 μM, P2), “a much reduced number of macrophages is observed; also recorded: enriched and mostly devoid of macrophage contamination”. The “macrophage contamination and MSC appearance (images)” value in experiment [2] (BM, 1, 5 and 10 μM) is on record as “have reduced numbers of contaminating macrophages; also recorded: a noticeable decrease in macrophages was noticed”.
